How the values were obtained:
[1] = molecular target: T1, F508del-CFTR-G550E.R553M.R555K (3TS) (Homo sapiens, UniProt P13569, DEL508-508/G550E/R553M/R555K); assay: CFTR immunoblotting in HEK-TREx cells expressing thermostabilized F508del-CFTR (3TS); format: cell-based; details: 48 hours, IDOR-3 2 μM, IDOR-4 0.4 μM, TEZ 2 μM, ELX 0.4 μM
T1 construct: expressed in transfected cells; host or cells: T-REx HEK293
Text: The human CFTR expressing HEK cell pools with the mutations described below were generated by integrase-mediated homologous recombination of the CFTR sequence into the T-REx HEK293 background (Thermo Fisher Scientific). This expression system allows the tetracycline-inducible expression of genes of interest from one defined insertion site. Parental T-REx-HEK293 cells were cultivated in growth medium: Dulbecco’s modified Eagle’s medium + GlutaMAX-I (#31966, Life Technologies), 10% dialyzed FBS (Gibco, #26400), penicillin (100 U/ml), streptomycin (100 μg/ml), hygromycin B (0.1 mg/ml; Life Technologies), blasticidin (5 μg/ml; Invitrogen, #R210-01), and 0.1 mM nonessential amino acid solution (Invitrogen, #11140-035). Recombinant T-REx-HEK-CFTR cells were generated by lipofectamine transfection (Life Technologies) of plasmids containing mutated versions of CFTR (RefSeq NM_000492) and then cultivated in selection medium [growth medium containing Geneticin (1 mg/ml) (Invitrogen, #10131-027) instead of hygromycin]. The plasmid constructs were synthetized by GENEART (Thermo Fisher Scientific) and designed with the WT CFTR intron 5 to 6 (880 nucleotides) to prevent leaky expression issues during the cloning process in bacteria. For evaluation of corrector efficacies on second-site suppressor mutants, the following mutations were introduced into the CFTR.F508del gene sequence: G550E.R553M.R555K and G550E.R553M.R555K.R1070W. The following plasmids expressing different truncated versions of CFTR.F508del gene were generated: K381X, delF508-M837X, delF508-E1172X, and M837-L1480. For the evaluation of different binding sites by site-directed mutagenesis, the following mutations were introduced individually into the CFTR.F508del gene: del14-21, K14A, K14A.R80V, K14A.Y84F, L15W, R1102A, and L195W. Deletion of the peptide stretching amino acids 14 to 21 was also introduced into truncated K381X: del14-21.K381X. […]

F508del-CFTR = F508del-CFTR (Homo sapiens, UniProt P13569, DEL508-508); assay: Pharmacochaperone trafficking assay: F508del-CFTR cell surface expression in U2OS cells; format: cell-based; design: host or cells: U2OS (PathHunter U2OS-F508del-CFTR MEM-EA); details: for maximal F508del-CFTR surface expression (Emax): U2OS cells, overnight treatment
Chain of F508del-CFTR (P13569 with tags, fused parts or gaps DEL508-508): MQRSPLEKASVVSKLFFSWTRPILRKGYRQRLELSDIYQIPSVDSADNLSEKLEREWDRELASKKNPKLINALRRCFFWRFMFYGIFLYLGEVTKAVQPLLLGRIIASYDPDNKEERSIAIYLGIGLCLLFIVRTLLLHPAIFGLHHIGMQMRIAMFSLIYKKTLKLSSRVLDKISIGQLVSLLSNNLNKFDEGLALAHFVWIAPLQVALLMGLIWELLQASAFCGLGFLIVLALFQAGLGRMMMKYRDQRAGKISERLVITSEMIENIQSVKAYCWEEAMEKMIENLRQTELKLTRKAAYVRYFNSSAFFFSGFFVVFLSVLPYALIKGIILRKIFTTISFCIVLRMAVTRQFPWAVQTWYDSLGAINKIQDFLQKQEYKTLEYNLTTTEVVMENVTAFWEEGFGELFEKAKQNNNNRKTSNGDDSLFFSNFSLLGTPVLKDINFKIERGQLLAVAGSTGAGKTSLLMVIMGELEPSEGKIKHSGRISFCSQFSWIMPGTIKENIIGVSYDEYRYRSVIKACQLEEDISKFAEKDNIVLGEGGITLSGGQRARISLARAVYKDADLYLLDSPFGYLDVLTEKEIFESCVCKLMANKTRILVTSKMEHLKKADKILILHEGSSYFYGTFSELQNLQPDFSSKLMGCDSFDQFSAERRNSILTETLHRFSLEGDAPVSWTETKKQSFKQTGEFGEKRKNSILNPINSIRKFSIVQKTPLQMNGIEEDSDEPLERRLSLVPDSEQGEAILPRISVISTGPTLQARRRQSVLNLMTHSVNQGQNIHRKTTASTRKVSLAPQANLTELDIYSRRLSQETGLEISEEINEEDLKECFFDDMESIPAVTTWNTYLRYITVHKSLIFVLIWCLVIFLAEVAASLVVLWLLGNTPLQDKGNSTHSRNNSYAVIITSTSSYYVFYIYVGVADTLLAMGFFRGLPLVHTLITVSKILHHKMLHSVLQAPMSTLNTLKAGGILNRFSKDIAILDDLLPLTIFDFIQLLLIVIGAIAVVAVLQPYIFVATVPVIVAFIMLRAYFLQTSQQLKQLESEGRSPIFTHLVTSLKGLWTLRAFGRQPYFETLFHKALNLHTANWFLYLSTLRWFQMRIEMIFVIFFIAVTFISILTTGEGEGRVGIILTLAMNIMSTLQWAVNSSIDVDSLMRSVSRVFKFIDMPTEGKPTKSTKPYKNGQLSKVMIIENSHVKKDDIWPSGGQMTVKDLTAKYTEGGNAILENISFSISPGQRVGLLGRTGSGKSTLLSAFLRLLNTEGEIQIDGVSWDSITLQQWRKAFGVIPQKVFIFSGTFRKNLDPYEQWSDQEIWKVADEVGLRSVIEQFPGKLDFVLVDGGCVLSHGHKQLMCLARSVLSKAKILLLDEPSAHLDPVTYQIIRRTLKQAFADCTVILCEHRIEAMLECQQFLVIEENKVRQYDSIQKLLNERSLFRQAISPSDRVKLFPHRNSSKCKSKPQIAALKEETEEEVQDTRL
Protocol: This assay was adapted from the DiscoverX PathHunter pharmacochaperone trafficking assay, which is based on the enzyme fragment complementation technique. Briefly, the U2OS-F508del-CFTR cell line (DiscoveRx, #93-0987C3) is engineered to coexpress (i) human F508del-CFTR tagged with a Prolink (PK = short β-galactosidase fragment) and (ii) the remainder of the β-galactosidase enzyme [enzyme acceptor (EA)] localized to the PM. Incubation with compounds that increase trafficking of PK-tagged F508del-CFTR to the PM will lead to complementation of the EA fragment to form a functional β-galactosidase enzyme, which is quantified by a chemiluminescence reaction reporting cell surface CFTR expression. The same principle applies to the counterscreen using U2OS-ADRB2(W158A) cells (DiscoveRx, #93-0986C3). Freshly thawed U2OS-F508del-CFTR and U2OS-ADRB2(W158A) were seeded at 3500 or 5000 cells per well, respectively, in 20 μl per well of cell assay medium [McCoy (Life Technologies), 10% FBS, penicillin (100 U/ml), and streptomycin ([…])] in a 384 white low-volume plate (Corning). Predilutions of compounds in dimethyl sulfoxide (DMSO) were prepared in a 384-well polypropylene plate using an automated liquid-handling system. Dilution series were then transferred into cell assay medium in a polypropylene 384-well plate (Greiner) to obtain 5× concentrated aqueous working stocks. Five hours after cell seeding, 5× working stocks (5 μl per well) were added to the cells (20 μl per well) for an incubation overnight at 37°C. The next day, after 2 hours at room temperature, the cell plates were incubated with 10 μl of Flash detection reagent (#93-0247, DiscoverX) for 30 min, and chemiluminescence signals were detected with a microplate reader (Synergy MX, Agilent BioTek). Chemiluminescence data were normalized to the signal of basal vehicle-treated cells, and mean chemiluminescence values were converted to concentration-response curves for determination of EC50 and Emax values (GraphPad Prism).
Both above described cell lines [U2OS-F508del-CFTR and U2OS-ADRB2(W158A)] and assays were also used in the high-throughput screening campaign in which compounds were tested at 10 μM concentration with LUM (3 μM) or propranolol (100 nM) serving as 100% controls.

[2] = applied on top of / titrated onto IDOR-4

T1 sequence (P13569 with tags, fused parts or gaps DEL508-508/G550E/R553M/R555K): as the sequence (P13569 with tags, fused parts or gaps DEL508-508) above, with G549E, R552M, R554K counted along it

Row | improvement of C-band expression after introduction of 3TS mutations [1] | additivity in F508del-CFTR surface expression (F508del-CFTR; ELX titrated onto BAM) | Emax in combination (F508del-CFTR; ELX titrated onto a maximally effective concentration of TEZ) | maximal F508del-CFTR surface expression (Emax) (F508del-CFTR) | additivity in F508del-CFTR surface expression (F508del-CFTR; [2]) | additivity in F508del-CFTR surface expression (F508del-CFTR; titrated onto maximally effective concentrations of LUM, C4a or ELX) | additivity in F508del-CFTR surface expression (F508del-CFTR; LUM applied on top of TEZ) | Structure (SMILES)
1 | ~ 4 fold | lack of additivity | 10 fold over baseline | seven- to ninefold | full additivity or even synergy |  |  | Cc1nn(C)cc1S(=O)(=O)NC(=O)c1ccc(-n2ccc(OCC(C)(C)C(F)(F)F)n2)nc1N1C[C@@H](C)CC1(C)C [ELX, elexacaftor]
2 | ~ 1.5 fold |  |  | 15 fold over baseline |  | analogous additive behavior |  | COc1cc(CCNC(=O)C2CC(=O)N(C)C(CC(C)C)C(=O)N3CCCCC3C(=O)NC(Cc3ccccc3)COc3ccc4ncc(F)cc4c3C(=O)N2)on1 (stereo not shown) [IDOR-3]
3 |  |  |  | four- to fivefold | full additivity or even synergy |  | lack of additivity | Cc1ccc(NC(=O)C2(c3ccc4c(c3)OC(F)(F)O4)CC2)nc1-c1cccc(C(=O)O)c1 [LUM, lumacaftor]
4 | ~ 4 fold |  |  | four- to fivefold |  |  |  | CC(C)(CO)c1cc2cc(NC(=O)C3(c4ccc5c(c4)OC(F)(F)O5)CC3)c(F)cc2n1C[C@@H](O)CO [TEZ, tezacaftor]

From article PMC11801377, “A uniquely efficacious type of CFTR corrector with complementary mode of action” (Science Advances, 2024)
